Converted amounts (≈) assume the structure as drawn. Marks after values point to notes of the source that are not given here.
What was measured:
[1] = Approximate solubilities in various solvents at ambient temperature (crystallization screen); assay type: physicochemical
Method: A weighed sample of L-dT (usually 20-30 mg) was treated with aliquots of the test solvent. Solvents were either reagent or HPLC grade. The aliquots were usually 100 μL or 500 μL. Between additions the mixture was sonicated. When the solids dissolved, as judged by visual inspection, the solution was filtered, then left in an open vial under ambient conditions (fast evaporation). The procedure was repeated, and the resulting solution was left under ambient conditions in a vial with aluminum foil containing pinholes (slow evaporation). Samples were also generated by filtering a warm solution of L-dT into a cold antisolvent (cold precipitation).
Solubilities were estimated from these experiments based on the total solvent used to give a solution. Note that actual solubilities may be greater than those calculated because of the use of too-large solvent aliquots or a slow rate of dissolution.
Approximate solubilities of L-dT in various solvents at ambient temperature were determined during the crystalline screen, and are summarized in Table 1.

[2] = Moisture sorption/desorption (VTI SGA-100 Vapor Sorption Analyzer); assay type: physicochemical; conditions: for Moisture balance: loss from 95-5% RH: desorption from 95% to 5% RH; for Moisture balance: weight loss at 5% RH: equilibration at 5% RH; for Moisture balance: weight gain at 95% RH: sorption up to 95% RH; for Weight lost upon lowering the relative humidity (in words): lowering relative humidity from 95% RH to 5% RH
Method: Moisture sorption/desorption data were collected on a VTI SGA-100 Vapor Sorption Analyzer. Sorption and desorption data were collected over a range of 5% to 95% relative humidity (RH) at 10% RH intervals under a nitrogen purge. Samples were not dried prior to analysis. Equilibrium criteria used for analysis were less than 0.0100% weight change in 5 minutes, with a maximum equilibration time of 3 hours if the weight criterion was not met. Data were not corrected for the initial moisture content of the samples. NaCl and PVP were used as calibration standards.

[3] = solvent 1,1,1,3,3,3-hexafluoroisopropanol
[4] = solvent N,N-dimethylformamide (DMF)
[5] = solvent ethanol (EtOH), after 2 hours, all solid was dissolved

SMILES	Solubility [1, 3] [mg/mL]	Solubility ([1]; solvent 2,2,2-trifluoroethanol) [mg/mL]	Solubility ([1]; solvent MeOH:water (1:1)) [mg/mL]	Solubility [1, 4] [mg/mL]	Solubility ([1]; solvent THF:water (1:1)) [mg/mL]	Solubility ([1]; solvent acetone:water (4:1)) [mg/mL]	Solubility [1, 5]	Solubility ([1]; solvent methanol (MeOH)) [mg/mL]	Solubility ([1]; solvent water) [mg/mL]	Weight lost upon lowering the relative humidity (in words) [2]	also measured
Cc1cn([C@@H]2C[C@@H](O)[C@H](CO)O2)c(=O)[nH]c1=O [L-dT, beta-L-2′-deoxythymidine]	22 (≈ 90.8 mM)	8 (≈ 33 mM)	58 (≈ 239 mM)	72 (≈ 297 mM)	127 (≈ 524 mM)	51 (≈ 211 mM)	> 4 mg/mL	11 (≈ 45.4 mM)	32 (≈ 132 mM)	–	Solubility (in words) ([1]; in acetone, acetonitrile, ethyl acetate, diethyl ether, isopropanol, methylene chloride, and toluene): sparingly soluble
Cc1cn([C@@H]2C[C@@H](O)[C@H](CO)O2)c(=O)[nH]c1=O [Lot No. 1, beta-L-2′-deoxythymidine]	–	–	–	–	–	–	–	–	–	–	Moisture balance: loss from 95-5% RH ([2]; listed as 1): 1.1% loss from 95-5% RH; Moisture balance: weight loss at 5% RH ([2]; listed as 1): <0.1% weight loss at 5% RH; Moisture balance: weight gain at 95% RH ([2]; listed as 1): 1.1% weight gain at 95% RH
Cc1cn([C@@H]2C[C@@H](O)[C@H](CO)O2)c(=O)[nH]c1=O [Lot No. 2, beta-L-2′-deoxythymidine]	–	–	–	–	–	–	–	–	–	–	Moisture balance: loss from 95-5% RH ([2]; listed as 2): 2.7% loss from 95-5% RH; Moisture balance: weight loss at 5% RH ([2]; listed as 2): −0.4% weight loss at 5% RH; Moisture balance: weight gain at 95% RH ([2]; listed as 2): 2.8% weight gain at 95% RH
Cc1cn([C@@H]2C[C@@H](O)[C@H](CO)O2)c(=O)[nH]c1=O [amorphous L-dT, beta-L-2′-deoxythymidine]	–	–	–	–	–	–	–	–	–	loses almost all of this weight	Moisture balance: weight loss at 5% RH [2]: ~0.4%; Moisture sorption: weight gain up to about 55% RH ([2]; sorption up to about 55% RH): ~2.3%
Cc1cn([C@@H]2C[C@@H](O)[C@H](CO)O2)c(=O)[nH]c1=O [crystalline L-dT, beta-L-2′-deoxythymidine]	22 (≈ 90.8 mM)	8 (≈ 33 mM)	58 (≈ 239 mM)	72 (≈ 297 mM)	127 (≈ 524 mM)	51 (≈ 211 mM)	>3.6* mg/mL	11 (≈ 45.4 mM)	32 (≈ 132 mM)	All of this weight is lost	Solubility ([1]; solvent acetone): <4 mg/mL; Solubility ([1]; solvent acetonitrile (ACN)): <4 mg/mL; Solubility ([1]; solvent dichloromethane): <3 mg/mL; Solubility ([1]; solvent ethyl acetate (EtOAc)): <4 mg/mL; Solubility ([1]; solvent ethyl ether): <3 mg/mL; Solubility ([1]; solvent hexane): <4 mg/mL; Solubility ([1]; solvent isopropanol IPA): <3 mg/mL; Solubility ([1]; solvent tetrahydrofuran (THF)): 4 mg/mL (≈ 16.5 mM); Solubility ([1]; solvent toluene): <4 mg/mL; Moisture balance: weight gain at 95% RH [2]: 1.1%

Source: patent US7589079B2, “Crystalline and amorphous forms of beta-L-2′-deoxythymidine” (Novartis AG, priority 2002, dated 2009)
